# From US20150190509A1, “RESIN[…]” (MESTEX AG, priority 2012, published 2015)
# Legend:
# [1] = storage stability of RTX dissolved in ethanol with or without protective gas; type: physicochemical
# Experimental: Under these circumstances a loss of the RTX dissolved in ethanol occurs, on the order of magnitude of 10% in 3 months. However, if the RTX is dissolved together with argon in ethanol or in other body-compatible solvents, the loss at ambient temperature remains very low. As described in further detail below, RTX in the resiniferatoxin solution according to the invention even loses its undesired tendency to cling to polymeric surfaces.
# [2] = loss of RTX on contact with polymer (polypropylene) syringe; type: physicochemical; settings: diluted ready-for-use solution (buffer solution and hyaluronic acid), kept in polypropylene syringe for 10 minutes
# Text: An additional positive property of the resiniferatoxin solution according to the invention is the fact that the substance is stabilized even in a diluted, ready-for-use solution (i.e. diluted with a buffer solution and hyaluronic acid), so that it can also be used in combination with commercial, polymer plastic syringes which are usually produced from polypropylene, polyethylene, polyurethane and other materials. To date, it has been considered absolutely necessary for the RTX solution not to come in contact with the polymer, because it binds immediately to it.
compound,measurement,setting,value
"C=C(C)[C@]12C[C@@H](C)[C@@]34O[C@](Cc5ccccc5)(O[C@@H]1[C@@H]3C=C(COC(=O)Cc1ccc(O)c(OC)c1)C[C@]1(O)C(=O)C(C)=C[C@@H]41)O2 [RTX, Resiniferatoxin]",RTX content (stability of the dissolved RTX) over months,"[1]; RTX dissolved in ethanol at 5° C. with 0.07 wt% argon, second measurement series",100%
same,RTX content (stability of the dissolved RTX) over months,"[1]; RTX dissolved in ethanol at 5° C. without additional protective gas (argon), first measurement series",continuous decrease
same,RTX content (stability of the dissolved RTX) over months,"[1]; RTX dissolved in ethanol at 25° C. with 0.07 wt % argon, third measurement series",100%
same,loss of RTX at ambient temperature,"[1]; RTX dissolved together with argon in ethanol or other body-compatible solvents, ambient temperature",very low
same,loss of the RTX dissolved in ethanol,"[1]; frozen RTX stored under protective gas (argon), then dissolved with ethanol, in 3 months",~10%
same,loss of RTX in polypropylene syringe,[2],without measurable loss
